In general, IC50 refers to the concentration needed to halve the response being measured.

Consider 22 compounds from US11759462B2, “Spirocyclic compounds as tryptophan hydroxylase inhibitors” (priority 2013, dated 2023).

Each structure is given as a SMILES string. Where two headings read alike, the source gives them in different places.

The target of this assay is T1, Recombinant human TPH1 (MBP tagged) (Homo sapiens, UniProt P17752).
T1 construct: cloning full length human TPH1 cDNA in to a bacterial pMAL-c5E expression vector; made in house; host or cells: E. coli BL21 (DE3)
T1 sequence (P17752 1-444): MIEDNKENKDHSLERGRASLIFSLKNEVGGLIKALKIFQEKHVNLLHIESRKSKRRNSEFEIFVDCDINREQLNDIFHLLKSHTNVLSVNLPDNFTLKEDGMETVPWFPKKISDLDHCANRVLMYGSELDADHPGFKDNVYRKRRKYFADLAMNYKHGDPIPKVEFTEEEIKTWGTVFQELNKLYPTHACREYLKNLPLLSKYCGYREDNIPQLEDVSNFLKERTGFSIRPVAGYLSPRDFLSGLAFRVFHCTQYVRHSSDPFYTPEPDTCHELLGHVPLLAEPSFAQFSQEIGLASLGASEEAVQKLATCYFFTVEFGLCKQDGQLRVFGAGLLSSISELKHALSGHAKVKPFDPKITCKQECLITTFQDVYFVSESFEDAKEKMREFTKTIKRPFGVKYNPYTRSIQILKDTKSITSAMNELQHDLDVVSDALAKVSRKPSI
The experiment in a line: TPH1 in vitro inhibition assay (kinetic fluorescence). The assay is classed as biochemical. In outline: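 Final mix: 15 nM MBP-TPH1, 30 μM Trp, 36 μM 6-methyltetrahydropterin, 25 μM ferrous ammonium sulfate, 50 mM MES pH 7.1, 1% DMSO, room temperature.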

The mark [1] stands for this setting: read-out: TPH1 Range (TPH1 inhibition IC50).
Where [2] appears, read: TPH1 Range (TPH1 inhibition IC50).

For the compound `Nc1nc(O[C@H](c2ccc(Cl)cc2-c2ncccn2)C(F)(F)F)cc(N2CCC3(CC2)CN[C@H](C(=O)O)C3)n1` [Example 34ct, (S)-8-(2-amino-6-((R)-1-(4-chloro-2-(pyrimidin-2-yl)phenyl)-2,2,2-trifluoroethoxy)pyrimidin-4-yl)-2,8-diazaspiro[4.5]decane-3-carboxylic acid], under setting [1], the IC50 was below 50 nM.

Regarding `Nc1nc(O[C@H](c2ccc(Cl)cc2-c2cnccn2)C(F)(F)F)cc(N2CCC3(CC2)CN[C@H](C(=O)O)C3)n1` [Example 34cu, (S)-8-(2-amino-6-((R)-1-(4-chloro-2-(pyrazin-2-yl)phenyl)-2,2,2-trifluoroethoxy)pyrimidin-4-yl)-2,8-diazaspiro[4.5]decane-3-carboxylic acid], the IC50 under setting [1] was below 50 nM.

For `COCCOc1cccc(-c2cc(Cl)ccc2[C@@H](Oc2cc(N3CCC4(CC3)CN[C@H](C(=O)O)C4)nc(N)n2)C(F)(F)F)c1` [Example 34cv, (S)-8-(2-amino-6-((R)-1-(5-chloro-3′-(2-methoxyethoxy)-[1,1′-biphenyl]-2-yl)-2,2,2-trifluoroethoxy)pyrimidin-4-yl)-2,8-diazaspiro[4.5]decane-3-carboxylic acid], the IC50 under setting [1] is below 50 nM.

With `Nc1nc(O[C@H](c2ccc(Cl)cc2-c2ccccc2N)C(F)(F)F)cc(N2CCC3(CC2)CNC(C(=O)O)C3)n1` (stereo partly drawn) [Example 34d, 8-(2-amino-6-((R)-1-(2′-amino-5-chloro-[1,1′-biphenyl]-2-yl)-2,2,2-trifluoroethoxy)pyrimidin-4-yl)-2,8-diazaspiro[4.5]decane-3-carboxylic acid], the IC50 under setting [1] lay within 50 to 300 nM.

As to `Nc1nc(O[C@H](c2ccc(Cl)cc2-c2cccc([N+](=O)[O-])c2)C(F)(F)F)cc(N2CCC3(CC2)CNC(C(=O)O)C3)n1` (stereo partly drawn) [Example 34e, 8-(2-amino-6-((R)-1-(5-chloro-3′-nitro-[1,1′-biphenyl]-2-yl)-2,2,2-trifluoroethoxy)pyrimidin-4-yl)-2,8-diazaspiro[4.5]decane-3-carboxylic acid], the IC50 under setting [1] fell in the range of 50 to 300 nM.

On to `Nc1cccc(-c2cc(Cl)ccc2[C@@H](Oc2cc(N3CCC4(CC3)CNC(C(=O)O)C4)nc(N)n2)C(F)(F)F)c1` (stereo partly drawn) [Example 34f, 8-(2-amino-6-((R)-1-(3′-amino-5-chloro-[1,1′-biphenyl]-2-yl)-2,2,2-trifluoroethoxy)pyrimidin-4-yl)-2,8-diazaspiro[4.5]decane-3-carboxylic acid], for which, under setting [1], the IC50 is 50 to 300 nM.

On to `Nc1nc(O[C@H](c2ccc(Cl)cc2-c2ccc([N+](=O)[O-])cc2)C(F)(F)F)cc(N2CCC3(CC2)CNC(C(=O)O)C3)n1` (stereo partly drawn) [Example 34g, 8-(2-amino-6-((R)-1-(5-chloro-4′-nitro-[1,1′-biphenyl]-2-yl)-2,2,2-trifluoroethoxy)pyrimidin-4-yl)-2,8-diazaspiro[4.5]decane-3-carboxylic acid], for which the IC50 under setting [1] lay in the range of 50 to 300 nM.

On to `Nc1ccc(-c2cc(Cl)ccc2[C@@H](Oc2cc(N3CCC4(CC3)CNC(C(=O)O)C4)nc(N)n2)C(F)(F)F)cc1` (stereo partly drawn) [Example 34h, 8-(2-amino-6-((R)-1-(4′-amino-5-chloro-[1,1′-biphenyl]-2-yl)-2,2,2-trifluoroethoxy)pyrimidin-4-yl)-2,8-diazaspiro[4.5]decane-3-carboxylic acid], for which the IC50 under setting [1] fell in the range of 300 to 3000 nM.

For the compound `Cc1cccc(-c2cc(Cl)ccc2[C@@H](Oc2cc(N3CCC4(CC3)CN[C@H](C(=O)O)C4)nc(N)n2)C(F)(F)F)n1` [Example 34i, (S)-8-(2-amino-6-((R)-1-(4-chloro-2-(6-methylpyridin-2-yl)phenyl)-2,2,2-trifluoroethoxy)pyrimidin-4-yl)-2,8-diazaspiro[4.5]decane-3-carboxylic acid], the IC50 under setting [2] is 50 to 300 nM.

`CCS(=O)(=O)c1cccc(-c2cc(Cl)ccc2[C@@H](Oc2cc(N3CCC4(CC3)CN[C@H](C(=O)O)C4)nc(N)n2)C(F)(F)F)c1` [Example 34j, (S)-8-(2-amino-6-((R)-1-(5-chloro-3′-(ethylsulfonyl)-[1,1′-biphenyl]-2-yl)-2,2,2-trifluoroethoxy)pyrimidin-4-yl)-2,8-diazaspiro[4.5]decane-3-carboxylic acid]: the concentration for half-maximal inhibition (IC50) under setting [1] was 50 to 300 nM.

Turning to `CCCS(=O)(=O)c1cccc(-c2cc(Cl)ccc2[C@@H](Oc2cc(N3CCC4(CC3)CN[C@H](C(=O)O)C4)nc(N)n2)C(F)(F)F)c1` [Example 34k, (S)-8-(2-amino-6-((R)-1-(5-chloro-3′-(propylsulfonyl)-[1,1′-biphenyl]-2-yl)-2,2,2-trifluoroethoxy)pyrimidin-4-yl)-2,8-diazaspiro[4.5]decane-3-carboxylic acid], the IC50 under setting [1] was in the range of 50 to 300 nM.

For `CCCCS(=O)(=O)c1cccc(-c2cc(Cl)ccc2[C@@H](Oc2cc(N3CCC4(CC3)CN[C@H](C(=O)O)C4)nc(N)n2)C(F)(F)F)c1` [Example 34l, (S)-8-(2-amino-6-((R)-1-(3′-(butylsulfonyl)-5-chloro-[1,1′-biphenyl]-2-yl)-2,2,2-trifluoroethoxy)pyrimidin-4-yl)-2,8-diazaspiro[4.5]decane-3-carboxylic acid], under setting [1], the IC50 is 50 to 300 nM.

For the compound `Nc1nc(O[C@H](c2ccc(Cl)cc2-c2cccc(CO)c2)C(F)(F)F)cc(N2CCC3(CC2)CN[C@H](C(=O)O)C3)n1` [Example 34m, (S)-8-(2-amino-6-((R)-1-(5-chloro-3′-(hydroxymethyl)-[1,1′-biphenyl]-2-yl)-2,2,2-trifluoroethoxy)pyrimidin-4-yl)-2,8-diazaspiro[4.5]decane-3-carboxylic acid], the IC50 under setting [1] was in the range of 50 to 300 nM.

Regarding `CS(=O)(=O)Nc1cccc(-c2cc(Cl)ccc2[C@@H](Oc2cc(N3CCC4(CC3)CN[C@H](C(=O)O)C4)nc(N)n2)C(F)(F)F)c1` [Example 34n, (S)-8-(2-amino-6-((R)-1-(5-chloro-3′-(methylsulfonamido)-[1,1′-biphenyl]-2-yl)-2,2,2-trifluoroethoxy)pyrimidin-4-yl)-2,8-diazaspiro[4.5]decane-3-carboxylic acid], the IC50 under setting [2] lay within 50 to 300 nM.

`Nc1nc(O[C@H](c2ccc(Cl)cc2-c2cccc(N3CCCC3=O)c2)C(F)(F)F)cc(N2CCC3(CC2)CN[C@H](C(=O)O)C3)n1` [Example 34o, (S)-8-(2-amino-6-((R)-1-(5-chloro-3′-(2-oxopyrrolidin-1-yl)-[1,1′-biphenyl]-2-yl)-2,2,2-trifluoroethoxy)pyrimidin-4-yl)-2,8-diazaspiro[4.5]decane-3-carboxylic acid]: the half-inhibitory concentration (IC50) under setting [2] lay within 50 to 300 nM.

Regarding `CN1CCN(c2cccc(-c3cc(Cl)ccc3[C@@H](Oc3cc(N4CCC5(CC4)CN[C@H](C(=O)O)C5)nc(N)n3)C(F)(F)F)c2)C1=O` [Example 34p, (S)-8-(2-amino-6-((R)-1-(5-chloro-3′-(3-methyl-2-oxoimidazolidin-1-yl)-[1,1′-biphenyl]-2-yl)-2,2,2-trifluoroethoxy)pyrimidin-4-yl)-2,8-diazaspiro[4.5]decane-3-carboxylic acid], under setting [1], the IC50 fell in the range of 50 to 300 nM.

Consider `Nc1nc(O[C@H](c2ccc(Cl)cc2-c2cccc(C(F)(F)F)c2)C(F)(F)F)cc(N2CCC3(CC2)CN[C@H](C(=O)O)C3)n1` [Example 34q, (S)-8-(2-amino-6-((R)-1-(5-chloro-3′-(trifluoromethyl)-[1,1′-biphenyl]-2-yl)-2,2,2-trifluoroethoxy)pyrimidin-4-yl)-2,8-diazaspiro[4.5]decane-3-carboxylic acid], for which the IC50 under setting [2] is below 50 nM.

For `Cn1ccc(-c2cc(Cl)ccc2[C@@H](Oc2cc(N3CCC4(CC3)CN[C@H](C(=O)O)C4)nc(N)n2)C(F)(F)F)n1` [Example 34t, (S)-8-(2-amino-6-((R)-1-(4-chloro-2-(1-methyl-1H-pyrazol-3-yl)phenyl)-2,2,2-trifluoroethoxy)pyrimidin-4-yl)-2,8-diazaspiro[4.5]decane-3-carboxylic acid], the IC50 under setting [1] fell in the range of 50 to 300 nM.

For the compound `N#Cc1cccc(-c2cc(Cl)ccc2[C@@H](Oc2cc(N3CCC4(CC3)CN[C@H](C(=O)O)C4)nc(N)n2)C(F)(F)F)c1` [Example 34x, (S)-8-(2-amino-6-((R)-1-(5-chloro-3′-cyano-[1,1′-biphenyl]-2-yl)-2,2,2-trifluoroethoxy)pyrimidin-4-yl)-2,8-diazaspiro[4.5]decane-3-carboxylic acid], under setting [2], the IC50 is below 50 nM.

Regarding `COc1cccc(-c2cc(Cl)ccc2[C@@H](Oc2cc(N3CCC4(CC3)CN[C@H](C(=O)O)C4)nc(N)n2)C(F)(F)F)c1` [Example 34y, (S)-8-(2-amino-6-((R)-1-(5-chloro-3′-methoxy-[1,1′-biphenyl]-2-yl)-2,2,2-trifluoroethoxy)pyrimidin-4-yl)-2,8-diazaspiro[4.5]decane-3-carboxylic acid], the IC50 under setting [2] was below 50 nM.

As to `NCc1cccc(-c2cc(Cl)ccc2[C@@H](Oc2cc(N3CCC4(CC3)CN[C@H](C(=O)O)C4)nc(N)n2)C(F)(F)F)c1` [Example 34z, (S)-8-(2-amino-6-((R)-1-(3′-(aminomethyl)-5-chloro-[1,1′-biphenyl]-2-yl)-2,2,2-trifluoroethoxy)pyrimidin-4-yl)-2,8-diazaspiro[4.5]decane-3-carboxylic acid], under setting [1], the IC50 was below 50 nM.

Take `CCOC(=O)c1cccc(-c2cc(Cl)ccc2[C@@H](Oc2cc(N3CCC4(CC3)CN[C@H](C(=O)O)C4)nc(N)n2)C(F)(F)F)c1` [Example 35, (S)-8-(2-amino-6-((R)-1-(5-chloro-3′-(ethoxycarbonyl)-[1,1′-biphenyl]-2-yl)-2,2,2-trifluoroethoxy)pyrimidin-4-yl)-2,8-diazaspiro[4.5]decane-3-carboxylic acid]: the concentration for half-maximal inhibition (IC50) under setting [1] fell in the range of 50 to 300 nM.
